According to patent US6692695B1, “Industrial scale barrier technology for preservation of sensitive biological materials” (Quadrant Drug Delivery Limited, priority 1999, dated 2004):

Experiments:
[1] = Potency of Amphotericin after foam drying and storage
Experimental: (8) Freeze-dried samples of Amphotericin B were rehydrated with 5 ml 40 wt % sucrose per vial. Then the solutions were transferred into 50 ml sterilized glass vials for future preservation by drying. Before drying, the vials were covered with gray butyl slotted rubber stoppers. The vials were dried inside a vacuum chamber. The vials were placed on the surface of a stainless steel shelf inside the chamber. The shelf temperature was controlled by circulating ethylene glycol/water antifreeze at a controlled temperature inside the shelf. Before the vacuum was applied the shelf temperature was decreased to 5° C. The hydrostatic pressure inside the chamber was decreased to 0.5 Torr. Under such conditions the suspension boiled for 30 min. The temperature of the shelf was then slowly (during 30 min) increased to 25° C. Visually, stable dry foams were formed inside the vials under these experimental conditions within 3 hours. After an additional 12 hours of drying at room temperature, the chamber was filled with the dry N2 gas and the rubber stoppers in a portion of the vials were pushed down. The vials were removed from the chamber and subsequently sealed with aluminum crimped seal. The samples were assayed immediately after drying and after 30 days of storage at 27.5° and 40° C. The results are shown in Table 1, together with the results obtained in the next experiment.
Another set of freeze-dried samples of Amphotericin B was rehydrated with 5 ml 40 wt % sucrose per vial. The solutions were then transferred into sterilized glass vials for future preservation by drying similar to that described above with additional drying at 45° C. for additional 24 hours. After that, the chamber was filled again with the dry N2 gas, the rubber stoppers were pushed down and the vials were sealed. The samples were assayed right after drying and after 30 day of storage at 27.5° and 40° C.

[2] = Glass transition temperature of foam-dried sucrose particles; format: physicochemical
Experimental: (1) In the first test, the equipment set-up consisted of a 4.5 inch internal diameter glass tube connected to a standard Virtis SL600 Unitop condenser section and heated via two laboratory style hot plates from Coming. The opposite end of the glass tube was closed. A 200 ml solution of sucrose 50% (w/w) in de-ionized water was introduced to a 2 L PET beverage bottle, commonly used for soft drinks. This would be considered to be a semi-rigid container. The bottle was placed in the tube and the sucrose solution was preserved by foam formation. After mechanically stable foam was formed, the bottle containing the foam was held overnight at 0.3 Torr and 25° C. The next morning the vacuum was broken with air. Total process time was 23 hours. Immediately following tube disassembly, the bottle was removed from the tube and purged with dry nitrogen for approximately one minute. The bottle was capped with the accompanying plastic screw top. The foam appeared to completely fill the bottle. […] Next the bottle was struck against the laboratory counter about 8-10 times with light-moderate force. All of the foam inside broke apart into discreet particles with the visual and flow characteristics of sand. A small amount of material remained adhering to the bottle interior. The glass transition temperature of the coarse particulate material was 18° C.
(2) In a second test, the glass tube used in the first test was replaced with a jacketed glass tube. The jacket was filled with water and connected to a recirculating heater bath. The bottle used previously was replaced with a 1-gallon capacity polyethylene plastic storage bag, commonly available in supermarkets. This would be considered to be a flexible container. The bag was taped in place to a plastic holder to keep the bag open. The bag was filled with 150 ml of 50% (w/w) sucrose in de-ionized water. Primary foam drying was essentially completed 90 minutes later and the heating source switched to hot plates. Conditions at that point were 31° C. and 0.1 5 Torr. The foam was then held overnight. […]

[3] = Urokinase activity after foam drying and storage
Experimental: (7) Freeze-dried samples of Urokinase were rehydrated with 2 ml of 40 wt % sucrose. The solutions were then transferred to 20 ml sterilized glass vials for future preservation by drying. Before drying, the vials were covered with gray slotted rubber stoppers. The vials were dried inside a vacuum chamber. The vials were sitting on the surface of a stainless steel shelf inside the chamber. The shelf temperature was controlled by circulating ethylene glycol/water antifreeze at a controlled temperature inside the shelf. Before the vacuum was applied the shelf temperature was decreased to 5° C. Then the hydrostatic pressure inside the chamber was decreased to 0.5 Torr. Under such conditions, the suspension boiled for 30 min. […] Visually, under these experimental conditions, stable dry foams were formed inside the vials within 3 hours. After an additional 12 hours of drying at room temperature, the temperature was increased to 45° C. and maintained for an additional 24 hours. After that the chamber was filled with dry N2 gas, the rubber stoppers were pushed down and the vials were sealed with aluminum crimp seals.
The samples were assayed immediately after drying and after 30 days of storage at 40° C. After drying the Urokinase, activity was 93% of the initial activity. […]

In the case of `C[C@@H]1[C@H](O)[C@@H](C)/C=C/C=C/C=C/C=C/C=C/C=C/C=C/[C@H](O[C@@H]2O[C@H](C)[C@@H](O)[C@H](N)[C@@H]2O)C[C@@H]2O[C@](O)(C[C@@H](O)C[C@@H](O)[C@H](O)CC[C@@H](O)C[C@@H](O)CC(=O)O[C@H]1C)C[C@H](O)[C@H]2C(=O)O` [Amphotericin, Amphotericin B], the “Potency of Amphotericin (%)” value ([1]; Control) is reported as 126%, the “Potency of Amphotericin (%) After 30 days at 27.5° C.” value ([1]; Td = 25° C.) is reported as 114% and the “Potency of Amphotericin (%) After 30 days at 40° C.” value ([1]; Td = 25° C.) is reported as 95%. The “Potency of Amphotericin (%) After drying” value ([1]; Td = 25° C.) was 108%, the “Potency of Amphotericin (%) After 30 days at 27.5° C.” value ([1]; Td = 45° C.) was 102% and the “Potency of Amphotericin (%) After 30 days at 40° C.” value ([1]; Td = 45° C.) was 104%. The “Potency of Amphotericin (%) After drying” value ([1]; Td = 45° C.) was 103%.

Molecule `OC[C@H]1O[C@@](CO)(O[C@H]2O[C@H](CO)[C@@H](O)[C@H](O)[C@H]2O)[C@@H](O)[C@@H]1O` [sucrose] has a glass transition temperature ([2]; 150 ml 50% (w/w) in 1-gallon polyethylene bag, 31° C., total 71 hours) of 18.33 °C, a glass transition temperature ([2]; 200 ml 50% (w/w) in 2 L PET bottle, held overnight at 0.3 Torr and 25° C., total 23 hours) of 18 °C and a glass transition temperature ([2]; 300 ml 50% (w/w) in larger bag, up to 55° C. and 0.2 Torr, total 23.5 hours) of 33.3 °C.

With Urokinase the “activity, % of the initial activity” value ([3]; after 30 days of storage at 40° C.) was 90% and the “activity, % of the initial activity” value ([3]; after drying (40 wt % sucrose, up to 45° C.)) was 93%.
